Tests used:
[1] = system: HUVEC; experiment: Antiproliferative activity against HUVEC after 72 hrs by WST8 dye reduction assay; assay type: functional, cell-based; conditions: Homo sapiens
[2] = molecular target: Vascular endothelial growth factor receptor 2 (Homo sapiens, UniProt P35968); experiment: Inhibition of KDR after 2 hrs incubation
Vascular endothelial growth factor receptor 2, sequence (P35968 whole entry): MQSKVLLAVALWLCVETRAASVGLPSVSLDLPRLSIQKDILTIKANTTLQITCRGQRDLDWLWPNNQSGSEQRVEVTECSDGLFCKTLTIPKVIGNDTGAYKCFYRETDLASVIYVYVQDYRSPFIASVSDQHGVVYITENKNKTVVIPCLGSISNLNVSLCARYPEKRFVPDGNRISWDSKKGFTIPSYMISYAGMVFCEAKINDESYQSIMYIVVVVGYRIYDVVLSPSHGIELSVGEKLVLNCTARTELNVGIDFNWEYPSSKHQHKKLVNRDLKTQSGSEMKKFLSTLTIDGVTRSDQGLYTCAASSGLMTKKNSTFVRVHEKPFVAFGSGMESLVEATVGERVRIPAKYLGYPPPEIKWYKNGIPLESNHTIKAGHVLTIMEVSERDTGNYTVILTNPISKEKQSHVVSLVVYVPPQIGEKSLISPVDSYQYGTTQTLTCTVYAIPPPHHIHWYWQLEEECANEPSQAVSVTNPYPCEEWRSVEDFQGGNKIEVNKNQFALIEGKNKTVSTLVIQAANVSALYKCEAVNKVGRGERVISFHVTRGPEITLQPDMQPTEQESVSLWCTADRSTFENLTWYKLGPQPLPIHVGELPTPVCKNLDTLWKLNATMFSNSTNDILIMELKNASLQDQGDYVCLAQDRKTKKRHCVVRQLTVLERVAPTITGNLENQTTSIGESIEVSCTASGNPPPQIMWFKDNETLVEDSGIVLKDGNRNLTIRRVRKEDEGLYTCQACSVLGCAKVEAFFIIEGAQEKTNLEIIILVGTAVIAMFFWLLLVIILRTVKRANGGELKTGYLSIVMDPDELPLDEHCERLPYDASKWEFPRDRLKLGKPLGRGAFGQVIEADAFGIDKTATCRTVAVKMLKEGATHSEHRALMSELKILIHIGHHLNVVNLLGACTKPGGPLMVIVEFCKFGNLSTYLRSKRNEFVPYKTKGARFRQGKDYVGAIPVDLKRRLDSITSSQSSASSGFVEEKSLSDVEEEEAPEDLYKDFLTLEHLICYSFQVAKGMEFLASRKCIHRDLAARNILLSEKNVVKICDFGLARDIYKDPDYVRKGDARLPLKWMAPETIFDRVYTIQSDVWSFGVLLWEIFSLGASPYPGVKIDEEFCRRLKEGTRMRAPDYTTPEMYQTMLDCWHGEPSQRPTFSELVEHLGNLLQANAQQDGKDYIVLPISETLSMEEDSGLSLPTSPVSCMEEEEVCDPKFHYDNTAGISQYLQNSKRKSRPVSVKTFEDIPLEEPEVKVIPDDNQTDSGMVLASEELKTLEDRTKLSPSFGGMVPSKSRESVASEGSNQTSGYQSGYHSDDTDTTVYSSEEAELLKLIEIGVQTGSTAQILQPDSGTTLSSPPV

`CC(=O)Oc1c(-c2ccc(O)c(O)c2)c(O)c(O)c2c1oc1cc(O)c(O)cc12` [BOLETOPSIN C] was tested, and the IC50 [1] was 9.04 µM and the IC50 [2] was 70.7 µM.

From ChEMBL document CHEMBL1158547, “KDR Kinase Inhibitor Isolated from the Mushroom Boletopsis leucomelas” (J Nat Prod, 2010)
